What was measured:
[1] = target: T1, human type 1 prolyl 4-hydroxylase tetramer (α12β2) (Homo sapiens, UniProt P13674); experiment: Prolyl 4-hydroxylase activity assay (decarboxylation of 2-oxo[1-14C]glutarate), type 1 enzyme; assay type: biochemical; details: α12β2, recombinant enzyme from insect cells, 0.1% Triton X-100 extract
T1 construct: made in house; host or cells: Spodoptera frugiperda Sf9 insect cells (baculovirus co-infection); 0.1% Triton X-100 extract
Procedure: (§1) A recombinant baculovirus coding for the mouse α2 subunit was generated and used to infect S. frugiperda insect cells with or without the human PDI/β subunit, wherein the insect cells were infected at a multiplicity of 5. For production of an enzyme tetramer, the human α59 1 (see, Vuori, et al., supra) or mouse α2 viruses and the PDI/β viruses (id.) were used in a 1:1 or 2:1 ratio. […] The resulting supematants were analyzed by SDS/8% PAGE or nondenaturing 7.5% PAGE and assayed for enzyme activities. The cell pellets were further solubilized in 1% SDS, and the 0.1% Triton X-100-soluble and 1% SDS-soluble proteins were analyzed by SDS/PAGE under reducing for the α1 subunit of prolyl 4-hydroxylase (Veijola et al., supra; Vuori et al., supra; John et al. […] The 0.1% Triton X-100 extracts from cell homogenates containing either the mouse-human type II or the human type I enzyme were analyzed for prolyl 4-hydroxylase activity with an assay based on the hydroxylation-coupled decarbosylation of 2-oxo[1^14C]glutarate (Kivirikko and Myllyla, supra).

[2] = target: T2, mouse/human type 2 prolyl 4-hydroxylase tetramer (α22β2) (Mus musculus, UniProt Q60716); experiment: Prolyl 4-hydroxylase activity assay (decarboxylation of 2-oxo[1-14C]glutarate), type 2 enzyme; assay type: biochemical; details: for IC50: α22β2, footnote: values determined as IC50, read-out: Ki column, values determined as IC50
T2 construct: the cDNA clones, considered in combination, cover the whole coding region of the mouse α2 subunit; made in house; host or cells: Spodoptera frugiperda Sf9 insect cells (baculovirus pVL1392 construct, co-infection with PDI/β virus); 0.1% Triton X-100 extract
T2 sequence (Q60716 20-537 limits assumed): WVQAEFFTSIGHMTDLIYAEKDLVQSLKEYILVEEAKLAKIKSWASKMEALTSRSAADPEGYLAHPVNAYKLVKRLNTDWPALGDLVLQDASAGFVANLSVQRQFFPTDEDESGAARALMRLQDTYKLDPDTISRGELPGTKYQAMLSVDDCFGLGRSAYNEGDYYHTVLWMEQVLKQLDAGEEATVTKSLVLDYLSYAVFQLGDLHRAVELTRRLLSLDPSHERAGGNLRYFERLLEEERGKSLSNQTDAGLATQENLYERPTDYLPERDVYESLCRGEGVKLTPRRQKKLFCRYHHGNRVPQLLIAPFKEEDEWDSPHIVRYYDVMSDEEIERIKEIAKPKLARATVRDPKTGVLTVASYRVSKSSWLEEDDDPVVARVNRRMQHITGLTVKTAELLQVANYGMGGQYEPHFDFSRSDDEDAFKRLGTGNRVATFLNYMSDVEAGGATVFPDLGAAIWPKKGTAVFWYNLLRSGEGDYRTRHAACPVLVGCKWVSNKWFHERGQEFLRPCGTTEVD
T2 sequence (P07237 18-508 partner): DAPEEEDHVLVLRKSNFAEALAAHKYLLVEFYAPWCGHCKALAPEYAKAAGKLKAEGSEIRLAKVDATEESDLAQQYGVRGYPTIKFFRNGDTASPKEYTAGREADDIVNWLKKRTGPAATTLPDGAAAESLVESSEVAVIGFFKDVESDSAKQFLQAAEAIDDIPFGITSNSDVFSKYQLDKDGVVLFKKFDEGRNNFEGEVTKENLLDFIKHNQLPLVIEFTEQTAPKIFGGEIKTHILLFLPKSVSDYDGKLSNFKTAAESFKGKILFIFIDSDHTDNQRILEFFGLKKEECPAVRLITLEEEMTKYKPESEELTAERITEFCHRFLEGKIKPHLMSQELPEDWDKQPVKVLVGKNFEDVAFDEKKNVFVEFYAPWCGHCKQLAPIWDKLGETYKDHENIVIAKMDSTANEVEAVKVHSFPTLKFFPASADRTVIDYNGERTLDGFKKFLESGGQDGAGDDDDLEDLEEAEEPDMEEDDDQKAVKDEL
Procedure: as §1

[3] = α22β2 (mouse α2, human PDI/β), recombinant enzyme from insect cells

T1 sequence (P13674 18-534): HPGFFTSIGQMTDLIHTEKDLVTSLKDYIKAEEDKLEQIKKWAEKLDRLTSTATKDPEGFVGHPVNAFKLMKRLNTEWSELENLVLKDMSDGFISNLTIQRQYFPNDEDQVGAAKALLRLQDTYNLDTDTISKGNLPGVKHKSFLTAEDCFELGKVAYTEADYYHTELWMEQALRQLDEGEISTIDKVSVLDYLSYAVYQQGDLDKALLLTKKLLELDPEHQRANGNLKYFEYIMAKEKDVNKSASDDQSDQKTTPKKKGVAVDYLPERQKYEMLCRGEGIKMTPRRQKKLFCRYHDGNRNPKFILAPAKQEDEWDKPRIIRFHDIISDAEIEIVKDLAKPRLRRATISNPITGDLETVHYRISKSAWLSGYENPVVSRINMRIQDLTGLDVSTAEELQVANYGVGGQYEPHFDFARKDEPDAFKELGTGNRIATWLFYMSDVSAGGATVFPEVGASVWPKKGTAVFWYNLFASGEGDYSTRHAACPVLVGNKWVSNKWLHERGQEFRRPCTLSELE
T1 sequence (P07237 18-508 partner): as the sequence (P07237 18-508 partner) above

| Molecule | Ki [1] | Km [1] | Km [2, 3] | other results |
| --- | --- | --- | --- | --- |
| O=C(O)c1ccnc(C(=O)O)c1 [Pyridine-2,4-dicarboxylate] | 2 µM | – | – | Ki [2, 3]: 1 µM |
| Poly(t-proline), Mt 44,000 | 0.02 µM | – | – | IC50 [2]: 30 µM |
| O=C(O)CCC(=O)C(=O)O [2-Oxoglutatrate, 2-oxoglutarate] | – | 22 µM | 12 µM | – |
| (Pro-Pro-Gly)10 [(Pro--Pro--Gly)] | – | 18 µM | 45 µM | – |
| [Fe+2] [Fe^2+] | – | 4 µM | 4 µM | – |
| Poly(t-proline), Mt 7000 | 0.5 µM | – | – | IC50 [2]: 300 µM |
| poly (L-proline) | – | – | – | inhibition of the type 2 enzyme ([2]; type 2 enzyme compared with type 1): inhibited by poly (L-proline) only at very high concentrations |

From US20020177203A1, “Alpha2 subunit of prolyl 4-hydroxylase” (priority 1996, published 2002)
